From US5928860A, “Process for determining the tolerance, or toxicity of gaseous, liquid and/or viscous substances for the human or animal organism” (priority 1997, dated 1999)

Experiments:
[1] = system: explants of neonatal rabbit kidneys; type: cell-based
Description: An interactive tissue culture system was established for testing of toxicity. The culture system should provide information on whether the action of the substance perfluorophenathrene which changes the vessels can be established in vitro. Explants of neonatal rabbit kidneys were chosen as the test tissue. Antibodies for detection of vessels in the rabbit tissues are available in laboratory. In addition, the vascular system in this tissue has an extraordinarily high degree of spacial order. The preservation of the structure of the vascular system after application of the test substance was the parameter for assessment of the toxic effect in this test.
Tissue preparation: One to three day old rabbits were sacrificed by cervical dislocation. Organ explants were prepared immediately after removal of the kidneys.
The kidneys of neonatal rabbits are not yet completely developed. In the outermost region of the organ directly under the organ capsule, all nephron developments stages are found in addition to the embryonal tissue. Microsurgical organ explants were prepared from this region. To do this the kidneys were cut in half lengthwise. With fine tweezers the thin organ capsule was removed. With the organ capsule, the renal tissue still in development was detached. Proteases were not used in this preparation method, i.e. the organ-typical extracellular matrix and the intercellular connections remained intact. The organ explants were then stretched onto the retaining ring system.
Culture of the kidney explants: By using a retaining ring system it was possible to use tissue explants which had been […] for the tests. The tissue fragment was prepared in the corresponding size and fixed in the retaining ring. Proteolytic disintegration of the tissue, as can be necessary for culture in the conventional culture dish applications, was not carried out. The tissue fragment stretched onto the retaining ring was brought into contact with the tissue top or bottom with the test substance. The tissue top was defined as the side covered by the organ capsule. The tissue bottom was the tissue side exposed by the preparation. The tissue explants prepared in this way were cultivated with continuous throughflow of the medium. Use of perfusion culture technique in this case enabled complete abandonment of additives of fetal calf serum, adult serum or tissue extracts. The medium consists of a commercially available basic medium (Iscove's Modified Dulbecco's Medium, IMDM) to which the hormones aldosterone (10^-7 M) and 1.25 dihydroxyvitamin D3 (10^-9 M) have been added. In the presence of these hormones the structure of the renal tissue is completely preserved. Necroses were not observed even after culture times of more than 10 days.
For the perfusion culture, stretched explant 5 (organ samples) were inserted into the gradient chamber so that one upper and one lower compartment 6 or 7 are formed which are separated from one another by tissue 5. Upper compartment 6 was filled with the given test substance and no flow takes place through it in the experiment since the test substance was of viscous consistency. Throughflow of the test substance however would be possible in the application of liquid or gaseous substances.
Lower compartment 7 was filled with nutrient solution which was continuously pumped through the chamber compartment. Storage bottle 13 of the medium was connected via a hose connection 11 to the inlet 8 of lower chamber 7. Chamber outflow 9 was connected to the waste bottle. Storage bottle 13 was kept at 4° C. during the entire culture time. Supply hose 11 was inserted into 12 which ensured constant flushing of chamber with medium at 1 ml/h. […] Fundamentally other flow rates are possible. […]

rabbit eye [2] = conditions: in vivo
rabbit eye [3] = test: test of vitreous body replacements in the rabbit eye (animal test)

Description for tumor cells: In this example, two of these replacements (the substances perfluorophenathrene and perfluorodecaline) were studied. The substances have been tested in a cell culture system.
Cell culture systems are outstandingly suited for detection of acute toxic effects. They allow prompt testing of the direct toxic effect. If the toxicity of a substance is however based on cellular interactions, other systems must be used for analysis.

SMILES	Expression of EC 1 antigen [1]	Vascular structure [1]	expression of the EC 1 antigen / detection of endothelial cells [1]	damage to the retina or eye (rabbit eye [2])	Tissue structure [1]	preservation of the vascular network / vascular system in renal explants [1]	toxic effects in cell culture (tumor cells)	tolerance in animal test (rabbit eye [3])
FC1(F)C(F)(F)C(F)(F)C2(F)C(F)(C1(F)F)C(F)(F)C(F)(F)C1(F)C(F)(F)C(F)(F)C(F)(F)C(F)(F)C12F (stereo not shown) [Perfluorophenathrene, perfluorophenathrene]	+	-	expression of the EC 1 antigen was not influenced	major damage to the eye				
FC1(F)C(F)(F)C(F)(F)C2(F)C(F)(F)C(F)(F)C(F)(F)C(F)(F)C2(F)C1(F)F (stereo not shown) [Perfluorodecaline, perfluorodecaline]	+	+			+	excellent preservation of the vascular system	no indications of toxic effects	good tolerance
